This note sets out measurements from patent publication US7973219B2, “Method for producing transgenic plants resistant to weed control compounds which disrupt the porphyrin pathways of plants” (Sumitomo Chemical Company, Limited, priority 1998, dated 2011).

Test [1] has as its system E. coli BT3/pACYCSP+pHEMF strain. The test can be described thus: Growth of E. coli BT3/pACYCSP+pHEMF (E. coli hemF) with herbicidal compound. To be noted: 18 hours culture, Table 14. It is filed as cell-based, Escherichia coli. The source says: According to the description of Gibson, L. C. D. et al., Proc. Natl. Acad. Sci. USA, 92; p 1941 (1995), the DNA fragment containing bchH gene prepared in Example 1 was digested with the restriction enzymes NdeI and BglII. The resultant DNA fragment was inserted between NdeI restriction site and BamHI restriction site of expression vector pET11a (manufactured by Stratagene) to obtain plasmid pETBCH (FIG. 1). This plasmid pETBCH was introduced into E. coli BL21(DE3) strain competent cells (manufactured by Stratagene) according to the manual attached to the competent cells to obtain E. coli BL21(DE3)/pETBCH strain. The strain was inoculated into 1.5 ml LB liquid culture medium (1% tryptone, 0.5% yeast extract, 0.5% NaCl) containing 100 μg/ml ampicillin in a tube (14×10 mm), and the tube was covered with aluminum foil (hereinafter referred to as dark conditions), cultured with shaking at 37° C. under light of fluorescent lamp (about 8000 lux). When the absorbance at 600 nm of the liquid culture medium became about 0.6, isopropyl β-D-thiogalactopyranoside (IPTG) was added to the liquid culture medium so that the final concentration was 0.4 mM, and the culture was continued for about additional 20 hours. […] In contrast to this, when E. coli BL21(DE3)/pETBCH strain was cultured according to the same manner (with IPTG) except that the tube was not covered with aluminum foil (hereinafter referred to as light conditions), E. coli grew and turned red as above.
The DNA fragment containing hemF gene amplified by the method described in Example 26 was digested with restriction enzymes FbaI and PstI, and inserted between BamHI restriction site and PstI restriction site of commercially available plasmid […] (manufactured by Takara Shuzo Co., Ltd.) to construct plasmid pHEMF (FIG. 16).
The plasmid pHEMF and pTV118N were introduced into E. coli BT3/pACYCSP strain prepared in Example 3 respectively according to the method described in Hanahan, D. J., Mol. Biol., 166; p 557 (1983). […]
These E. coli strains were inoculated into YPT medium containing 10 or 1 ppm of the PPO inhibitory-type herbicidal compound represented by Structure 8, 100 μg/ml ampicillin, 15 μg/ml chloramphenicol, 10 μg/ml kanamycin, 10 μg/ml hemin and 50 μg/ml aminolevulinic acid, cultured under dark conditions or light conditions according to the same manner as in Example 2. Then, 18 hours after initiation of culture, the absorbance of liquid culture medium was measured at 600 nm. By taking the absorbance of the medium without the herbicidal compound as I, the relative value of the absorbance of the medium containing the herbicidal compound was calculated.

Test [2] concerns tobacco into which bchH gene was introduced. Description: Leaf piece chlorophyll test, tobacco into which bchH gene was introduced. In kind it is in vivo. The settings on record: 0.3 ppm, Table 4; for activity at 0.3 ppm: Nicotiana tabacum, 168 h, 7 days in light, treated vs untreated leaf pieces, read-out: Resistant level to test compound; for Total chlorophyll content treated-leaf: leaf pieces 7 days in light place. The procedure:
Then, according to the method described in Manual for Gene Manipulation of Plant (by Hirofumi UCHIMIYA, Kodan-sha Scientific, 1992), the gene was introduced into tobacco. Agrobacterium strain bearing plasmid pBIBCH was cultured at 28° C. overnight in LB medium and then leaf pieces of tobacco cultured sterilely were dipped in the liquid culture medium. The leaf pieces were cultured at room temperature for 2 days in Murashige-Skoog medium (MS-medium, described in Murasige T. and Skoog F., Physiol. Plant. (1962) 15, p 473) containing 0.8% agar, 0.1 mg/liter naphthalene acetic acid and 1.0 mg/liter benzyl aminopurine. Then, the leaf pieces were washed with sterilized water and cultured for 7 days on MS medium containing 0.8% agar, 0.1 mg/liter naphthalene acetic acid, 1.0 mg/liter benzyl aminopurine and 500 μg/ml cefotaxime. The leaf pieces were transplanted onto MS medium containing 0.8% agar, 0.1 mg/liter naphthalene acetic acid, 1.0 mg/liter benzyl aminopurine, 500 μg/ml cefotaxime and 100 μg/ml kanamycin (hereinafter referred to as selective MS medium) and cultured on the medium continuously for 4months with transplanting the tobacco leaf pieces onto fresh selective MS medium every 1 month. During culture, stem-leaf differentiated shoots were appeared from the tobacco leaf pieces, these shoots were transplanted to MS medium containing 0.8% agar, 300 μg/ml cefotaxime and 50 μg/ml kanamycin to induce roots to obtain regenerated plants. The resultant regenerated plant was transplanted and cultured on MS medium 0.8% agar and 50 μg/ml kanamycin to obtain tobacco plant into which bchH gene was introduced. Similarly, tobacco leaf pieces were infected with Agrobacterium strain bearing pNO to obtain regenerated plant from the tobacco leaf pieces and tobacco plant (hereinafter referred to as control recombinant tobacco).
The tobacco leaves into which bchH gene was introduced and control recombinant tobacco leaves obtained in Example 5 were collected and each leaf was divided into the right and left equivalent pieces along the main vein, respectively. To one piece was applied an aqueous solution containing 0.3 ppm PPO inhibitory-type herbicidal compound of Structure 8, while, to the other piece was not applied the compound. These leaf pieces were placed on MS medium containing 0.8% agar and allowed to stand at room temperature for 7 days in light place. Then, each leaf piece was ground with pestle and mortar in 5 ml of 80% aqueous acetone solution to extract chlorophyll. The extract liquid was diluted with 80% aqueous acetone solution and the absorbance was measured at 750 nm, 663 nm and 645 nm to calculate total chlorophyll content according to the method described by Macknney G., J. Biol. Chem. (1941) 140, p 315. The results obtained from 4 clones of tobacco into which bchH gene was introduced (BCH1 to 4) and control recombinant tobacco is shown in Table 4. In the table, the resistant level to the herbicidal compound was represented by percentages of the total chlorophyll content of leaf pieces treated with herbicidal compound to that of untreated leaf pieces.
The tobacco clone into which bchH gene was introduced and control recombinant tobacco were also treated in the same manner with the solution containing PPO inhibitory-type herbicidal compound represented by the above Structure 3, 7, 10, 11, 13, 17, 23, 24, 25, 27, 28, 30 or 35, and the resistant level to each herbicidal compound was measured. In the table, the resistant levels to the herbicidal compound were represented by percentages of the total chlorophyll content of leaf pieces treated with the herbicidal compound to that of untreated leaf pieces.

Where two headings read alike, the source gives them in different places.

`C#CCOc1cc(N2C(=O)C3=C(CCCC3)C2=O)c(F)cc1Cl` [Structure 8]: the Relative absorbance in test [1] (in the dark, 1 ppm) came out at 0.95; in test [1] (in the dark, 10 ppm) it was 0.94; in test [1] (in the light, 1 ppm), 1.0; in test [1] (in the light, 10 ppm), 0.48. Further, the activity at 0.3 ppm in test [2] (clone BCH-1) was found to be 126%; in test [2] (clone BCH-2), 104%; in test [2] (clone BCH-3), 81.3%; in test [2] (clone BCH-4) it was 70.2%. Also, the “Total chlorophyll content treated-leaf” value in test [2] (clone BCH-1) is listed as 1.70 mg/g-fresh weight; in test [2] (clone BCH-2), 2.14 mg/g-fresh weight; in test [2] (clone BCH-3), 1.57 mg/g-fresh weight; in test [2] (clone BCH-4) it was 1.06 mg/g-fresh weight.
